From paper PMC7044277 (Nature Communications, 2020)
Values joined by “and” are separate entries in the source; they are usually repeats but may differ in a detail not shown here. Equal values may be shown once.

How the values were obtained:
Type in all cases: cell-based
Design in all cases: GPCRome screening signal at PTGIR / GPCRome screening signal at PTH1R / GPCRome screening signal at PTH2R / GPCRome screening signal at QRFP / GPCRome screening signal at RXFP2 / GPCRome screening signal at RXFP3 / GPCRome screening signal at RXFP4 / GPCRome screening signal at S1PR2 / GPCRome screening signal at S1PR3 / GPCRome screening signal at S1PR4 / GPCRome screening signal at S1PR5 / GPCRome screening signal at SCTR / GPCRome screening signal at SSTR2 / GPCRome screening signal at SSSTR / GPCRome screening signal at SSTR4 / GPCRome screening signal at SSTR5 / GPCRome screening signal at SUCNR1 / GPCRome screening signal at TA1 / GPCRome screening signal at TAAR2 / GPCRome screening signal at TAAR5 / GPCRome screening signal at TAAR6 / GPCRome screening signal at TAAR8 / GPCRome screening signal at TACR1 / GPCRome screening signal at TACR2 / GPCRome screening signal at TACR3 / GPCRome screening signal at TBXA2R / GPCRome screening signal at TSHR / GPCRome screening signal at UTS2R / GPCRome screening signal at VIPR2 / GPCRome screening signal at GPR68 no V2 Tail / GPCRome screening signal at GRM2 / GPCRome screening signal at GRM3: reference not given here
320 non-olfactory GPCRs [1] = molecular target: T1, 320 non-olfactory GPCRs (Homo sapiens, UniProt O14804); details: receptor TAAR5
T1 construct: expressed in transfected cells; host or cells: HTLA cells
T1 sequence (O14804 whole entry): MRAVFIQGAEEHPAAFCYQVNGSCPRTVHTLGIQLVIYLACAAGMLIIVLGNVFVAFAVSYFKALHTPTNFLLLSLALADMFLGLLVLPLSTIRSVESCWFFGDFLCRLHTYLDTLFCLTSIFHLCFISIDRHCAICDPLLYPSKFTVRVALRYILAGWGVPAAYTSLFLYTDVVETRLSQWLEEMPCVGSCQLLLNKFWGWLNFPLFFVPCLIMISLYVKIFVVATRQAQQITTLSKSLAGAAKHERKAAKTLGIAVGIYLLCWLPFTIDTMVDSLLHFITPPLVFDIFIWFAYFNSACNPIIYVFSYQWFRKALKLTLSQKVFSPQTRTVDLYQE

320 non-olfactory GPCRs [2] = molecular target: 320 non-olfactory GPCRs (Homo sapiens, UniProt O95977); details: receptor S1PR4
Chain of 320 non-olfactory GPCRs (Homo sapiens, UniProt O95977) (O95977 whole entry): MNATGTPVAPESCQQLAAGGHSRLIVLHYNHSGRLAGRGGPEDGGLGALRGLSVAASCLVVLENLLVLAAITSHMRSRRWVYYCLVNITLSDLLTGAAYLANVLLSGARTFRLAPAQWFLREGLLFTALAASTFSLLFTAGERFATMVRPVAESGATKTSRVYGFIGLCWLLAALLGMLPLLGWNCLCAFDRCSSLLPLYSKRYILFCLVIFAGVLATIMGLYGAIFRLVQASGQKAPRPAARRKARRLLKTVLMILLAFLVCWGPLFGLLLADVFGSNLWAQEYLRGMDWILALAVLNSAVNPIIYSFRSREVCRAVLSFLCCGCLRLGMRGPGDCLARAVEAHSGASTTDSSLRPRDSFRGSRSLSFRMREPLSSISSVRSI

320 non-olfactory GPCRs [3] = molecular target: T2, 320 non-olfactory GPCRs (Homo sapiens, UniProt P21452); details: receptor TACR2
T2 construct: expressed in transfected cells; host or cells: HTLA cells
T2 sequence (P21452 whole entry): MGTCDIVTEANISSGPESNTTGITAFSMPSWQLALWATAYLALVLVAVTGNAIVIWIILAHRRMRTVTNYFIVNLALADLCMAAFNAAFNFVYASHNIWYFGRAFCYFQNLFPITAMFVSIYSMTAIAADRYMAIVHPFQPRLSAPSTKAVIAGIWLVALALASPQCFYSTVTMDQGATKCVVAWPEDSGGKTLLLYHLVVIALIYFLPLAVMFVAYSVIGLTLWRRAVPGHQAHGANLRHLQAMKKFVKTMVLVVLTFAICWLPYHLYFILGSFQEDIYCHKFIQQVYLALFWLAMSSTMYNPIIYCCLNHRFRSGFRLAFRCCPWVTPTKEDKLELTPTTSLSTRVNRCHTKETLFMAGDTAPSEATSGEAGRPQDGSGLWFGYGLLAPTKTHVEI

320 non-olfactory GPCRs [4] = molecular target: 320 non-olfactory GPCRs (Homo sapiens, UniProt P31391); details: receptor SSTR4
Chain of 320 non-olfactory GPCRs (Homo sapiens, UniProt P31391) (P31391 whole entry): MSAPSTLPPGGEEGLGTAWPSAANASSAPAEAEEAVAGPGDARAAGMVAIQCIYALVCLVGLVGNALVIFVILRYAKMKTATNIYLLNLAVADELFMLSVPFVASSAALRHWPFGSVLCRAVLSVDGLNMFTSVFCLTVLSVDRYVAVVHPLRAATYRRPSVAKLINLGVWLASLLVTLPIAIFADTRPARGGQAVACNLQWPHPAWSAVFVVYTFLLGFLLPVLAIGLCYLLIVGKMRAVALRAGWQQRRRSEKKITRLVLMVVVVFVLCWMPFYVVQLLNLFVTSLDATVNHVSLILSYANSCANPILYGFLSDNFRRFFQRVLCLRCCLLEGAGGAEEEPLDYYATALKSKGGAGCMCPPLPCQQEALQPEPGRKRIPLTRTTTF

[5] = Fig_5f, single replicate values
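Wherever GPCRome agonism screen response is given: fold over basal response of each receptor without drug.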

| SMILES | GPCRome agonism screen response (320 non-olfactory GPCRs [1]; replicate values, Fig_4g) | GPCRome agonism screen response (320 non-olfactory GPCRs [2]; replicate values, Fig_4g) | GPCRome agonism screen response (320 non-olfactory GPCRs [3]; replicate values, Fig_4g) | GPCRome agonism screen response (320 non-olfactory GPCRs [4]; replicate values, Fig_4g) | GPCRome screening signal at TAAR5 (320 non-olfactory GPCRs [1]; [5]) | GPCRome screening signal at S1PR4 (320 non-olfactory GPCRs [2]; [5]) | GPCRome screening signal at TACR2 (320 non-olfactory GPCRs [3]; [5]) | GPCRome screening signal at SSTR4 (320 non-olfactory GPCRs [4]; [5]) |
| --- | --- | --- | --- | --- | --- | --- | --- | --- |
| CCOc1cccc2cc(C(C)NCC3(O)CCCCC3)oc12 (centres unmarked) [O4LE6] | 1.083 and 1.815 and 1.566 and 2.161 | 0.2093 and 0.09901 and 4.053 and 0.7997 | 0.5287 and 0.4964 and 0.9933 and 0.8884 | 1.584 and 2.327 and 0.4288 and 0.2624 | – | – | – | – |
| CCOc1ccccc1CCC(C)NCC1(O)CCCCC1.Cl (racemic) [Fig_5f] | – | – | – | – | 1.144 and 1.4451 and 1.369 and 1.654 | 1.441 and 1.208 and 0.7517 and 1.693 | 1.32 and 1.667 and 1.261 and 1.267 | 1.303 and 1.0005 and 1.096 and 1.043 |
